Experimental data reported in ChEMBL document CHEMBL1201862, “PubChem BioAssay data set” (2004).
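Following 48 hours of exposure in 96-well plates, responses at five concentrations were used to interpolate endpoints linearly. GI50 marks 50% less growth.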 Activity calls are given as the source filed them. Rule as the data show it: active = GI50 up to about 1.1 µM and inactive = higher.

Assays:
Assay in all cases: inhibition of tumour cell growth, NCI panel, 48 h
[1] = tested on: SNB-75
[2] = tested on: LXFL 529
[3] = tested on: A549
[4] = tested on: SF-268
[5] = tested on: HCT-15
[6] = tested on: NCI-H522
[7] = tested on: K562
[8] = tested on: COLO 205
[9] = tested on: SK-MEL-2
[10] = tested on: M14
[11] = tested on: KM12
[12] = tested on: DLD-1
[13] = tested on: OVCAR-8
[14] = tested on: RPMI-8226
[15] = tested on: NCI-H460
[16] = tested on: CAKI-1
[17] = tested on: Malme-3M
[18] = tested on: HOP-18
[19] = tested on: SR
[20] = tested on: SF-295
[21] = tested on: SW-620
[22] = tested on: UACC-62
[23] = tested on: UO-31
[24] = tested on: OVCAR-4
[25] = tested on: TK-10
[26] = tested on: DMS-273
[27] = tested on: SK-MEL-28
[28] = tested on: HCT-116
[29] = tested on: HOP-92
[30] = tested on: EKVX
[31] = tested on: IGROV-1
[32] = tested on: HOP-62
[33] = tested on: LOX IMVI
[34] = tested on: KM-20L2
[35] = tested on: RXF 393
[36] = tested on: UACC-257
[37] = tested on: HCC 2998
[38] = tested on: CCRF-CEM
[39] = tested on: OVCAR-3
[40] = tested on: HT-29
[41] = tested on: SF-539
[42] = tested on: NCI-H226
[43] = tested on: SN12C
[44] = tested on: SK-MEL-5
[45] = tested on: MOLT-4
[46] = tested on: SNB-19
[47] = tested on: HL-60
[48] = tested on: U-251
[49] = tested on: 786-0
[50] = tested on: SK-OV-3
[51] = tested on: OVCAR-5
[52] = tested on: ACHN
[53] = tested on: NCI-H23
[54] = tested on: M19-MEL
[55] = tested on: DMS-114
[56] = tested on: A498
[57] = tested on: SNB-78

CCCCCCCCCC(=O)CC(=O)c1ccc(O)cc1O
GI50 [1]: 33.6 µM (inactive) | GI50 [2]: 30.5 µM (inactive) | GI50 [3]: 31.3 µM (inactive) | GI50 [4]: 40.8 µM (inactive) | GI50 [5]: 30.2 µM | GI50 [6]: 18.6 µM (inactive) | GI50 [7]: 29.1 µM (inactive) | GI50 [8]: > 100 µM (inactive) | GI50 [9]: 18.6 µM (inactive) | GI50 [10]: 22.1 µM (inactive) | GI50 [11]: 21.4 µM (inactive) | GI50 [12]: 28.5 µM (inactive) | GI50 [13]: 22.6 µM (inactive) | GI50 [14]: 19.5 µM (inactive) | GI50 [15]: 31.8 µM (inactive) | GI50 [16]: 23.7 µM (inactive) | GI50 [17]: 52.6 µM (inactive) | GI50 [18]: 20.1 µM (inactive) | GI50 [19]: 15.8 µM (inactive) | GI50 [20]: 25.6 µM (inactive) | GI50 [21]: 36.5 µM (inactive) | GI50 [22]: 21.2 µM (inactive) | GI50 [23]: 19.7 µM (inactive) | GI50 [24]: 42.1 µM (inactive) | GI50 [25]: 40.8 µM (inactive) | GI50 [26]: 28.2 µM (inactive) | GI50 [27]: 39.8 µM (inactive) | GI50 [28]: 26.1 µM (inactive) | GI50 [29]: 27.7 µM (inactive) | GI50 [30]: 25.9 µM (inactive) | GI50 [31]: 31.5 µM (inactive) | GI50 [32]: 19.8 µM (inactive) | GI50 [33]: 17.5 µM (inactive) | GI50 [34]: 38 µM (inactive) | GI50 [35]: 28.4 µM (inactive) | GI50 [36]: 28.8 µM (inactive) | GI50 [37]: 21.3 µM (inactive) | GI50 [38]: 33.9 µM (inactive) | GI50 [39]: 22.6 µM (inactive) | GI50 [40]: 35.9 µM (inactive) | GI50 [41]: 26.5 µM (inactive) | GI50 [42]: 24.3 µM (inactive) | GI50 [43]: 27.3 µM (inactive) | GI50 [44]: 17.6 µM (inactive) | GI50 [45]: 17.6 µM (inactive) | GI50 [46]: 37 µM (inactive) | GI50 [47]: 19 µM (inactive) | GI50 [48]: 26.9 µM (inactive) | GI50 [49]: 33.5 µM (inactive) | GI50 [50]: > 100 µM (inactive) | GI50 [51]: 21.1 µM (inactive) | GI50 [52]: 28.6 µM (inactive) | GI50 [53]: 25.6 µM (inactive)

CCC12C=CCN3CCC4(C(=C(C(=O)OC)C1)Nc1ccccc14)[C@H]32 (some centres not stated)
GI50 [1]: 22 µM (inactive) | GI50 [2]: 31.6 µM (inactive) | GI50 [3]: 34.7 µM (inactive) | GI50 [4]: 19.5 µM (inactive) | GI50 [5]: 40.3 µM | GI50 [6]: 22.1 µM (inactive) | GI50 [54]: 31.3 µM (inactive) | GI50 [7]: 18.8 µM (inactive) | GI50 [8]: 18.4 µM (inactive) | GI50 [9]: 19.1 µM (inactive) | GI50 [10]: 21.6 µM (inactive) | GI50 [11]: 25.8 µM (inactive) | GI50 [12]: 40.4 µM (inactive) | GI50 [15]: 18.8 µM (inactive) | GI50 [16]: > 100 µM (inactive) | GI50 [55]: 19.2 µM (inactive) | GI50 [17]: 42.4 µM (inactive) | GI50 [18]: 26.5 µM (inactive) | GI50 [56]: 29.6 µM (inactive) | GI50 [19]: 0.0364 µM (active) | GI50 [20]: 28.3 µM (inactive) | GI50 [21]: 26 µM (inactive) | GI50 [22]: 21.3 µM (inactive) | GI50 [23]: 65.2 µM (inactive) | GI50 [24]: 29.4 µM (inactive) | GI50 [25]: 68.9 µM (inactive) | GI50 [26]: 17.9 µM (inactive) | GI50 [27]: 41.7 µM (inactive) | GI50 [28]: 30.8 µM (inactive) | GI50 [29]: 23.4 µM (inactive) | GI50 [30]: 51.1 µM (inactive) | GI50 [31]: 39.1 µM (inactive) | GI50 [33]: 20.8 µM (inactive) | GI50 [34]: 19.8 µM (inactive) | GI50 [35]: 24.9 µM (inactive) | GI50 [36]: 34.4 µM (inactive) | GI50 [37]: 33.3 µM (inactive) | GI50 [38]: 22.2 µM (inactive) | GI50 [39]: 30.8 µM (inactive) | GI50 [40]: 22.6 µM (inactive) | GI50 [41]: 20.5 µM (inactive) | GI50 [42]: 31.8 µM (inactive) | GI50 [44]: 27.2 µM (inactive) | GI50 [45]: 26.7 µM (inactive) | GI50 [46]: 26.6 µM (inactive) | GI50 [47]: 16 µM (inactive) | GI50 [49]: 23.4 µM (inactive) | GI50 [50]: 21.8 µM (inactive) | GI50 [51]: 70.8 µM (inactive) | GI50 [52]: 64 µM (inactive) | GI50 [53]: 28.4 µM (inactive)

NC(=O)c1coc(C2OC(CO)C(O)C2O)n1 (configuration not stated)
GI50 [2]: > 100 µM (inactive) | GI50 [3]: > 100 µM (inactive) | GI50 [4]: > 100 µM (inactive) | GI50 [5]: > 100 µM | GI50 [6]: > 100 µM (inactive) | GI50 [54]: > 100 µM (inactive) | GI50 [7]: > 100 µM (inactive) | GI50 [8]: > 100 µM (inactive) | GI50 [9]: > 100 µM (inactive) | GI50 [10]: > 100 µM (inactive) | GI50 [11]: > 100 µM (inactive) | GI50 [14]: > 100 µM (inactive) | GI50 [15]: > 100 µM (inactive) | GI50 [16]: > 10 µM (inactive) | GI50 [55]: > 100 µM (inactive) | GI50 [17]: > 100 µM (inactive) | GI50 [18]: > 100 µM (inactive) | GI50 [56]: > 100 µM (inactive) | GI50 [19]: > 100 µM (inactive) | GI50 [21]: > 100 µM (inactive) | GI50 [22]: > 100 µM (inactive) | GI50 [23]: > 100 µM (inactive) | GI50 [24]: > 100 µM (inactive) | GI50 [25]: > 100 µM (inactive) | GI50 [26]: > 100 µM (inactive) | GI50 [27]: > 100 µM (inactive) | GI50 [28]: > 100 µM (inactive) | GI50 [29]: > 100 µM (inactive) | GI50 [30]: > 100 µM (inactive) | GI50 [31]: > 100 µM (inactive) | GI50 [32]: > 100 µM (inactive) | GI50 [33]: > 100 µM (inactive) | GI50 [34]: > 100 µM (inactive) | GI50 [37]: > 100 µM (inactive) | GI50 [38]: > 100 µM (inactive) | GI50 [57]: > 100 µM (inactive) | GI50 [39]: > 100 µM (inactive) | GI50 [40]: > 100 µM (inactive) | GI50 [41]: > 100 µM (inactive) | GI50 [42]: > 100 µM (inactive) | GI50 [43]: > 100 µM (inactive) | GI50 [45]: > 100 µM (inactive) | GI50 [46]: > 100 µM (inactive) | GI50 [47]: > 100 µM (inactive) | GI50 [48]: > 100 µM (inactive) | GI50 [49]: > 100 µM (inactive) | GI50 [50]: > 100 µM (inactive) | GI50 [51]: > 100 µM (inactive) | GI50 [52]: > 100 µM (inactive) | GI50 [53]: > 100 µM (inactive)

Cc1c(O)c(O)cc[n+]1C1OC(CO)C(O)C1O (configuration not stated)
GI50 [1]: > 100 µM (inactive) | GI50 [2]: 33.1 µM (inactive) | GI50 [3]: > 100 µM (inactive) | GI50 [4]: > 100 µM (inactive) | GI50 [5]: > 100 µM | GI50 [6]: > 100 µM (inactive) | GI50 [54]: > 100 µM (inactive) | GI50 [7]: > 100 µM (inactive) | GI50 [8]: > 100 µM (inactive) | GI50 [9]: > 100 µM (inactive) | GI50 [10]: > 100 µM (inactive) | GI50 [11]: > 100 µM (inactive) | GI50 [12]: > 100 µM (inactive) | GI50 [13]: > 100 µM (inactive) | GI50 [14]: > 100 µM (inactive) | GI50 [15]: > 100 µM (inactive) | GI50 [16]: > 100 µM (inactive) | GI50 [17]: > 100 µM (inactive) | GI50 [18]: > 100 µM (inactive) | GI50 [56]: > 100 µM (inactive) | GI50 [21]: > 100 µM (inactive) | GI50 [22]: > 100 µM (inactive) | GI50 [23]: > 100 µM (inactive) | GI50 [24]: > 100 µM (inactive) | GI50 [25]: > 100 µM (inactive) | GI50 [26]: > 100 µM (inactive) | GI50 [27]: > 100 µM (inactive) | GI50 [28]: > 100 µM (inactive) | GI50 [29]: > 100 µM (inactive) | GI50 [30]: > 100 µM (inactive) | GI50 [31]: > 100 µM (inactive) | GI50 [33]: > 100 µM (inactive) | GI50 [34]: > 100 µM (inactive) | GI50 [35]: > 100 µM (inactive) | GI50 [36]: > 100 µM (inactive) | GI50 [37]: > 100 µM (inactive) | GI50 [38]: > 100 µM (inactive) | GI50 [57]: > 100 µM (inactive) | GI50 [40]: > 100 µM (inactive) | GI50 [42]: > 100 µM (inactive) | GI50 [43]: > 100 µM (inactive) | GI50 [46]: > 100 µM (inactive) | GI50 [48]: > 100 µM (inactive) | GI50 [49]: > 100 µM (inactive) | GI50 [50]: > 100 µM (inactive) | GI50 [51]: > 100 µM (inactive) | GI50 [52]: > 100 µM (inactive) | GI50 [53]: > 100 µM (inactive)
